Measured values taken from ChEMBL document CHEMBL1201862, “PubChem BioAssay data set” (2004).
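Cells were grown in 96-well plates and exposed to each compound for 48 hours at five concentrations; endpoints were interpolated linearly between bracketing concentrations, or set to the highest concentration if not reached. The concentration for 50% growth inhibition is given as GI50.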 Activity calls are given as the source filed them. Rule as the data show it: active = GI50 up to about 1.1 µM and inactive = higher.

What was measured:
Experiment in all cases: inhibition of tumour cell growth, NCI panel, 48 h
[1] = test system: DU-145
[2] = test system: HCC 2998
[3] = test system: NCI-H23
[4] = test system: MDA-MB-231
[5] = test system: HCT-15
[6] = test system: SF-539
[7] = test system: OVCAR-8
[8] = test system: COLO 205
[9] = test system: UO-31
[10] = test system: NCI/ADR-RES
[11] = test system: Hs-578T
[12] = test system: KM12
[13] = test system: A498
[14] = test system: SW-620
[15] = test system: MOLT-4
[16] = test system: UACC-62
[17] = test system: A549
[18] = test system: BT-549
[19] = test system: SK-MEL-28
[20] = test system: RPMI-8226

SMILES: CCCCCCCCC/C=C1/CC(CO)(COC(=O)CC(C(C)C)C(C)C)OC1=O (centres undefined)
- GI50 [1]: 12.4 µM (inactive)
- GI50 [2]: 2.39 µM (inactive)
- GI50 [3]: 13.1 µM (inactive)
- GI50 [4]: 2.59 µM (inactive)
- GI50 [5]: 14.4 µM
- GI50 [6]: 10.2 µM (inactive)
- GI50 [7]: 16 µM (inactive)
- GI50 [8]: 0.193 µM (active)
- GI50 [9]: 2.44 µM (inactive)
- GI50 [10]: 14.1 µM (inactive)
- GI50 [11]: 0.109 µM (active)
- GI50 [12]: 8.85 µM (inactive)
- GI50 [13]: 3.14 µM (inactive)
- GI50 [14]: 1.16 µM (inactive)
- GI50 [15]: 1.16 µM (inactive)
- GI50 [16]: 12.5 µM (inactive)
- GI50 [17]: 1.58 µM (inactive)
- GI50 [18]: 14.3 µM (inactive)
- GI50 [19]: 14.4 µM (inactive)

SMILES: Cn1c(=O)c2c(ncn2CN2CCN(Cn3cnc4c3c(=O)n(C)c(=O)n4C)CC2)n(C)c1=O
- GI50 [1]: 45.7 µM (inactive)
- GI50 [3]: 65.9 µM (inactive)
- GI50 [4]: > 100 µM (inactive)
- GI50 [5]: 27.6 µM
- GI50 [6]: 56.2 µM (inactive)
- GI50 [7]: 44.6 µM (inactive)
- GI50 [8]: 39.4 µM (inactive)
- GI50 [9]: 46.1 µM (inactive)
- GI50 [10]: > 100 µM (inactive)
- GI50 [11]: > 100 µM (inactive)
- GI50 [12]: 92.5 µM (inactive)
- GI50 [13]: > 100 µM (inactive)
- GI50 [14]: 23.2 µM (inactive)
- GI50 [15]: 17 µM (inactive)
- GI50 [16]: 45.7 µM (inactive)
- GI50 [17]: 34.2 µM (inactive)
- GI50 [18]: 62.2 µM (inactive)
- GI50 [20]: 22.7 µM (inactive)
- GI50 [19]: 48.1 µM (inactive)

SMILES: C/C=C1/CN2CCC34c5ccccc5N5C(=O)C(C6CC78c9ccccc9N9C(=O)C=CC(C%10CC7N6C/C%10=C/C)C98)=CC(C1CC23)C54 (centres undefined)
- GI50 [1]: 7.71 µM (inactive)
- GI50 [2]: 5.9 µM (inactive)
- GI50 [3]: 5.98 µM (inactive)
- GI50 [4]: 2.32 µM (inactive)
- GI50 [5]: 3.75 µM
- GI50 [6]: 1.11 µM (active)
- GI50 [7]: 2.06 µM (inactive)
- GI50 [8]: 5.09 µM (inactive)
- GI50 [9]: 2.84 µM (inactive)
- GI50 [10]: 8.34 µM (inactive)
- GI50 [11]: 8.11 µM (inactive)
- GI50 [12]: 9.55 µM (inactive)
- GI50 [13]: 8.81 µM (inactive)
- GI50 [14]: 1.59 µM (inactive)
- GI50 [15]: 1.11 µM (active)
- GI50 [16]: 7.69 µM (inactive)
- GI50 [17]: 8.15 µM (inactive)
- GI50 [18]: 8.77 µM (inactive)
- GI50 [19]: 5.41 µM (inactive)

SMILES: Cc1ccsc1/C=N/Nc1nncc2ccccc12
- GI50 [1]: > 100 µM (inactive)
- GI50 [2]: > 100 µM (inactive)
- GI50 [3]: > 100 µM (inactive)
- GI50 [4]: > 100 µM (inactive)
- GI50 [5]: > 100 µM
- GI50 [7]: > 100 µM (inactive)
- GI50 [8]: > 100 µM (inactive)
- GI50 [9]: 21.9 µM (inactive)
- GI50 [10]: > 100 µM (inactive)
- GI50 [11]: > 100 µM (inactive)
- GI50 [12]: > 100 µM (inactive)
- GI50 [13]: > 100 µM (inactive)
- GI50 [14]: > 100 µM (inactive)
- GI50 [15]: 44.8 µM (inactive)
- GI50 [16]: > 100 µM (inactive)
- GI50 [17]: 96.4 µM (inactive)
- GI50 [18]: > 100 µM (inactive)
- GI50 [20]: 81.8 µM (inactive)
- GI50 [19]: > 100 µM (inactive)

SMILES: CC1(C)CCC2(C(=O)OC3OC(CO)C(O)C(O)C3O)CCC3(CO)C(=CCC4C5(C)CC(O)C(O)C(C)(C(=O)OC6OC(CO)C(O)C(O)C6O)C5CCC43C)C2C1 (centres undefined)
- GI50 [1]: > 100 µM (inactive)
- GI50 [2]: > 100 µM (inactive)
- GI50 [3]: > 100 µM (inactive)
- GI50 [4]: > 100 µM (inactive)
- GI50 [5]: > 100 µM
- GI50 [6]: > 100 µM (inactive)
- GI50 [7]: > 100 µM (inactive)
- GI50 [8]: > 100 µM (inactive)
- GI50 [9]: > 100 µM (inactive)
- GI50 [10]: > 100 µM (inactive)
- GI50 [11]: > 100 µM (inactive)
- GI50 [12]: > 100 µM (inactive)
- GI50 [13]: > 100 µM (inactive)
- GI50 [14]: > 100 µM (inactive)
- GI50 [15]: > 100 µM (inactive)
- GI50 [16]: > 100 µM (inactive)
- GI50 [17]: > 100 µM (inactive)
- GI50 [18]: > 100 µM (inactive)
- GI50 [19]: > 100 µM (inactive)

SMILES: Oc1nc2c(c(-c3cccc(Cl)c3)n1)COC/C2=C\c1cccc(Cl)c1
- GI50 [1]: > 100 µM (inactive)
- GI50 [2]: > 100 µM (inactive)
- GI50 [3]: > 100 µM (inactive)
- GI50 [4]: > 100 µM (inactive)
- GI50 [5]: > 100 µM
- GI50 [6]: > 100 µM (inactive)
- GI50 [7]: > 100 µM (inactive)
- GI50 [8]: > 100 µM (inactive)
- GI50 [9]: > 100 µM (inactive)
- GI50 [10]: > 100 µM (inactive)
- GI50 [11]: > 100 µM (inactive)
- GI50 [12]: > 100 µM (inactive)
- GI50 [13]: > 100 µM (inactive)
- GI50 [14]: > 100 µM (inactive)
- GI50 [15]: > 100 µM (inactive)
- GI50 [16]: > 100 µM (inactive)
- GI50 [18]: > 100 µM (inactive)
- GI50 [20]: 69.7 µM (inactive)

SMILES: OC1(c2ccccc2)CSC2=Nc3ccccc3C3CCN1N23 (centres undefined)
- GI50 [1]: 15.6 µM (inactive)
- GI50 [2]: 26.9 µM (inactive)
- GI50 [3]: 27.7 µM (inactive)
- GI50 [4]: 15.5 µM (inactive)
- GI50 [5]: 17.6 µM
- GI50 [6]: 16.9 µM (inactive)
- GI50 [7]: 19.5 µM (inactive)
- GI50 [8]: 17.7 µM (inactive)
- GI50 [9]: 15.4 µM (inactive)
- GI50 [10]: 18.5 µM (inactive)
- GI50 [11]: 24.2 µM (inactive)
- GI50 [12]: 16.7 µM (inactive)
- GI50 [13]: 14.6 µM (inactive)
- GI50 [14]: 21.4 µM (inactive)
- GI50 [15]: 30.5 µM (inactive)
- GI50 [16]: 18.7 µM (inactive)
- GI50 [17]: 26.8 µM (inactive)
- GI50 [18]: 23.1 µM (inactive)
- GI50 [19]: 4.16 µM (inactive)

SMILES: CCn1cc(C(=O)O)c(=O)c2cc(F)c(N3CCN(CN4C(=O)/C(=N\NC(=O)c5ccncc5)c5cc(Cl)ccc54)CC3)cc21
- GI50 [1]: 24 µM (inactive)
- GI50 [2]: 36 µM (inactive)
- GI50 [3]: 59.4 µM (inactive)
- GI50 [4]: 52.7 µM (inactive)
- GI50 [5]: 31.1 µM
- GI50 [6]: 24.7 µM (inactive)
- GI50 [7]: 28.5 µM (inactive)
- GI50 [8]: 52.7 µM (inactive)
- GI50 [9]: 4.83 µM (inactive)
- GI50 [10]: 79.6 µM (inactive)
- GI50 [11]: 45.2 µM (inactive)
- GI50 [12]: 40.3 µM (inactive)
- GI50 [13]: > 100 µM (inactive)
- GI50 [14]: 23.4 µM (inactive)
- GI50 [15]: 0.048 µM (active)
- GI50 [16]: 58.7 µM (inactive)
- GI50 [17]: 57.3 µM (inactive)
- GI50 [18]: 91.6 µM (inactive)
- GI50 [19]: 59.2 µM (inactive)

SMILES: CCOC(=O)/C=C(\C(=O)OCC)n1ccc(=O)n(CC(=O)OCC)c1=O
- GI50 [1]: 17.3 µM (inactive)
- GI50 [2]: 16 µM (inactive)
- GI50 [3]: 8.07 µM (inactive)
- GI50 [4]: 6.12 µM (inactive)
- GI50 [5]: 1.83 µM
- GI50 [6]: 16.6 µM (inactive)
- GI50 [7]: 5.25 µM (inactive)
- GI50 [8]: 1.26 µM (inactive)
- GI50 [9]: 6.73 µM (inactive)
- GI50 [10]: 9.57 µM (inactive)
- GI50 [11]: 20 µM (inactive)
- GI50 [12]: 15.1 µM (inactive)
- GI50 [13]: 17.7 µM (inactive)
- GI50 [14]: 1.23 µM (inactive)
- GI50 [15]: 1.43 µM (inactive)
- GI50 [16]: 7.36 µM (inactive)
- GI50 [17]: 17.2 µM (inactive)
- GI50 [18]: 11.7 µM (inactive)
- GI50 [19]: 6.25 µM (inactive)

SMILES: Cc1c([C@H](C)[C@@H]2NC[C@@H](C)C[C@H]2O)ccc2c1C[C@H]1[C@H]2CC=C2C[C@@H](O)CC[C@@]21C [VERATRAMINE]
- GI50 [1]: 27.6 µM (inactive)
- GI50 [2]: 13.2 µM (inactive)
- GI50 [3]: 11.7 µM (inactive)
- GI50 [4]: 16.4 µM (inactive)
- GI50 [5]: 20.2 µM
- GI50 [7]: 21.9 µM (inactive)
- GI50 [8]: 14.4 µM (inactive)
- GI50 [9]: 14 µM (inactive)
- GI50 [10]: 23.4 µM (inactive)
- GI50 [11]: 20.6 µM (inactive)
- GI50 [12]: 14.5 µM (inactive)
- GI50 [13]: 15.2 µM (inactive)
- GI50 [14]: 28.6 µM (inactive)
- GI50 [15]: 13.1 µM (inactive)
- GI50 [16]: 13 µM (inactive)
- GI50 [17]: 16.7 µM (inactive)
- GI50 [18]: 21.1 µM (inactive)
- GI50 [20]: 3.29 µM (inactive)
- GI50 [19]: 17.3 µM (inactive)
